Experimental data taken from article PMC8559303 (European Journal of Medicinal Chemistry, 2021).

Test system: SARS-CoV-2
Format: cell-based
Details: 200 μM, Vero E6, CCK8

Row | Structure (SMILES) | protection on cells from death caused by viral infection
1 | CCN1Cc2cc(OC)c(OC)cc2-c2cccc(N)c21 [Compound 12, 5-Ethyl-8,9-dimethoxy-5,6-dihydrophenanthridin-4-amine] | ~100%
2 | CCN1Cc2cc(OC)c(OC)cc2-c2cccc(NC(=O)C(F)(F)F)c21 [Compound 16, N-(5-Ethyl-8,9-dimethoxy-5,6-dihydrophenanthridin-4-yl)-2,2,2-trifluoroacetamide] | ~100%
